In patent publication US10144929B2, “Polypeptide inhibitors of Smad3 polypeptide activities” (Mayo Foundation for Medical Education and Research, priority 2016, dated 2018):
Entries after “also recorded” stand apart in the source; their conditions may differ.

Columns and labels:
[1] = system: bleomycin (BLM)-induced lung fibrosis; assay: Treatment model of bleomycin (BLM)-induced lung fibrosis; type: in vivo, mice; conditions: for interstitial fibronectin / lung histology: daily intraperitoneal 0.5 mg/kg from day 14, day 28; for BLM induction of profibrotic genes (collagen 1, connective tissue growth factor, fibronectin), qPCR of lung tissue / total collagen production induced by bleomycin (hydroxyproline content): daily intraperitoneal from day 14, day 28; for peripheral blood oxygen saturation (SpO2) / gas exchange: 2-week treatment interval from day 14
Experimental: FIGS. 5A-D. Bleomycin (BLM)-induced lung remodeling is attenuated by TAT-SH3-2. (A) Hematoxylin and Eosin (H&E), Masson's Trichrome (MT), or fibronectin (anti-fibronectin and Hematoxylin) staining of representative paraffin-embedded lung sections from Control (saline treated) or mice challenged with BLM for 28 days and treated daily with 0.5 mg/kg TAT-SH3-2 or TAT-SH3-2M beginning 14 days following initial BLM insult (×8). (B) qPCR of the indicated genes (Col1, collagen 1; CTGF, connective tissue growth factor; FN, fibronectin) in murine lung tissue harvested on day 28 from mice challenged with BLM (+) or saline (−) and treated daily with vehicle (−; methocel/saline) or the indicated amount (μg) of TAT-SH3-2 or TAT-SH3-2M as in (A). Data reflect mean+/−sd of n=4. (C) Mice were treated with saline or BLM as in (A) and on day 14 administered daily vehicle (−) or the indicated concentration of TAT peptide. Animals were sacrificed on day 28, and hydroxyproline content was determined as described herein. Data reflect mean+/−sd of n=3. *P<0.005, **P<0.002. (D) Mice were treated as in (C), and qPCR of the indicated genes (Col Iα1 (collagen Iα1); CTGF (connective tissue growth factor); and FN (fibronectin)) were assessed in lung tissue harvested on day 28. Data reflect mean+/−sd of n=5. *P<0.005, **P<0.001.
Time-dependent fluctuation of oxygen saturation (SpO2) levels (determined on room air) in mice challenged with BLM (or saline) for 28 days and treated 1×/day with vehicle (methocel/saline), 0.5 mg/kg of TAT-SH3-2 or TAT-SH3-2M beginning 14 days after initial BLM insult. Error bars reflect SEM from n=4. (B) Time-dependent fluctuation of oxygen saturation (SpO2) levels (determined on room air) in mice challenged with BLM (or saline) for 28 days and treated 1×/day with vehicle (methocel/saline) or the indicated concentration of TAT-SH3-2 or TAT-SH3-2M beginning 14 days after initial BLM insult. Error bars reflect mean+/−sd from n=5. *P<0.05, **P<0.01.
Female 18-20 g C57 black mice (Charles River Laboratories) were administered bleomycin (BLM; 0.075 U diluted in 50 μL 0.9% normal saline) or 50 μL 0.9% normal saline alone by tracheal instillation using an intratracheal aerosolized (Penn-century, Wyndmoor, Pa.) as described elsewhere (Andrianifahanana et al., FASEB J., 27(11):4444-54 (2013)). At this time, animals were shaved around the collar region to allow monitoring of dissolved oxygen levels (every 3rd day) on room air using a MouseOX collar clip monitoring system (Starr Life Science Corp. Oakmont, Pa.). TAT-SNX9(SH3) fusion polypeptides were solubilized with DMSO and prepared by thoroughly blending with Methocel (Sigma, Louis, Mo.) at a ratio of 1:7. Mice were treated daily by intraperitoneal injection (100 μL) of a TAT-SNX9(SH3) fusion polypeptide or an equal volume of methocel/saline beginning on day 14. On day 28, mice were euthanized, lungs were dissected, and samples were prepared for immunohistochemistry and other analyses as described elsewhere (Andrianifahanana et al., FASEB J., 27(11):4444-54 (2013); Daniels et al., J. Clin. Invest., 114:1308-16 (2004); and Wang et al., FASEB J., 19:1-11 (2005)).
The Hydroxyproline Assay Kit from Sigma (St. Louis, Mo.) was used to assess total lung collagen levels. Briefly, following sacrifice lung tissue was washed in PBS, and 30 mg homogenized in 300 μL water. One hundred μL samples were hydrolyzed in 12 M HCl, and duplicate 50 μL samples were analyzed according to the manufacturer's recommendations.

AKR-2B cells = assay: Smad3-regulated biological responses: scratch assays and soft agar colony formation; type: cell-based; conditions: FIGS. 4C and 4D: scratch assay (5 ng/mL TGFβ, 24 hours) and soft agar
Experimental: FIGS. 4A-E. A point mutant of TAT-SH3-2 abolishes the inhibitory action on Smad3 responses. (A) Schematic depicting TAT-SNX9(SH3) fusion polypeptide constructs (Left). * in SH3-2M (mutant) reflects G to V mutations at amino acids 36-38. His pull down of pSmad3 bound to TAT-SNX9(SH3) fusion polypeptides was performed as in FIG. 3A (Middle). AKR-2B cells were transduced for 90 minutes with 1.5 μM of TAT-SH3-2, TAT-SH3-2M, or TAT-LC. Western analysis was performed for the indicated proteins following 24 hour treatment in the absence (−) or presence (+) of TGFβ (5 ng/mL) or SB431542 (10 μM) (Right). (B) qPCR of Smad3 (CTGF and Smad7) and Smad2 (Goosecoid and MixL) responsive genes as in FIG. 3D. Data reflect mean+/−sd from three experiments. […] (E) AKR-2B cells were transiently transfected with a BMP (BRE), EGF (SRE), or PDGF (MMP-1) reporter construct and luciferase activity determined following 12 hour incubation in the absence (−) or presence (+) of the indicated ligand (10 ng/mL BMP4, EGF, or PDGF), inhibitor (10 μM Dorsomophin; 3 μM Lapatinib; 2 μM CP868) or TAT-SNX9(SH3) fusion polypeptide (1.5 μM). […]
Soft agar assays were performed as described elsewhere (Rahimi et al., Cancer Res., 69(1):84-93 (2009)). […] Following 7 days growth at 37° C., the number of colonies>100 μm in diameter were counted using an Optronix Gelcount™ (Oxford Optronics, Milton, Abingdon, UK). […]

Row | Substance | BLM-induced lung remodeling ([1]; FIG. 5 title) | loss of lung function (SpO2) ([1]; animals receiving the highest concentration, FIG. 6B) | interstitial fibronectin [1] | lung histology [1] | BLM induction of profibrotic genes (collagen 1, connective tissue growth factor, fibronectin), qPCR of lung tissue [1] | total collagen production induced by bleomycin (hydroxyproline content) [1] | peripheral blood oxygen saturation (SpO2) / gas exchange ([1]; room air) | peripheral blood oxygen saturation (SpO2) / gas exchange ([1]; room air, listed as TAT-SH-2) | Smad3-regulated biological responses (AKR-2B cells) | decrease in SpO2 during the treatment regime ([1]; room air, FIG. 6B) [%]
1 | TAT-SH3-2: TAT-SNX9(SH3) fusion polypeptide having SNX9 amino acids 21-51 (31 mer) (TVNEGEIITITNPDVGGGWLEGRNIKGERGL; left off: small tags and cut ends) | attenuated | no additional loss of lung function | reduced interstitial fibronectin to essentially basal levels | improved lung histology | significantly reduced | dose-dependent dimunization in total collagen production | stabilized and/or improved gas exchange; also recorded: dose-dependent improvement in gas exchange | stabilizes lung gas exchange | inhibitory | 
2 | TAT-SH3-2M: TAT-SH3-2 with G to V point mutations at amino acids 36-38; inactive TAT-SNX9 peptide unable to bind pSmad3 (TVNEGEIITITNPDVVVVWLEGRNIKGERGL; left off: small tags and cut ends) |  |  | ineffective | ineffective | but not TAT-SH3-2M, significantly reduced | ineffective | analogous decline in SpO2 |  | not inhibitory | ~25
